# Reference: patent US20220274961A1, “SUBSTITUTED FUSED BI- OR TRI- HETEROCYCLIC COMPOUNDS AS EHMT2 INHIBITORS” (priority 2016, published 2022)
# Tests used:
# human EHMT2 913-1193 = molecular target: T1, human EHMT2 913-1193 (Homo sapiens, UniProt Q96KQ7); assay: biochemical; details: recombinant human EHMT2 913-1193, histone H3 1-15 peptide, 3H-SAM, balanced conditions; read-out: EHMT2 PEP (IC50 μM)
# T1 construct: recombinant purified human EHMT2 913-1193, Viva; purchased Viva
# T1 sequence (Q96KQ7 913-1193): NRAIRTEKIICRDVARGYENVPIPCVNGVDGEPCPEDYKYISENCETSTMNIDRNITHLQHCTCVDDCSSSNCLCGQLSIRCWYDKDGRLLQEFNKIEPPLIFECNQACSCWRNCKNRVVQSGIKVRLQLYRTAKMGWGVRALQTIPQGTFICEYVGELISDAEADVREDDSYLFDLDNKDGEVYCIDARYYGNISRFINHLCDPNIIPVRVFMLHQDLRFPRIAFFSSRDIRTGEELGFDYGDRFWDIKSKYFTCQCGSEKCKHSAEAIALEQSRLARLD
# Source text: Biotinylated histone peptides were synthesized by Biopeptide and HPLC-purified to >95% purity. Streptavidin Flashplates and seals were purchased from PerkinElmer and 384 Well V-bottom Polypropylene Plates were from Greiner. ^3H-labeled S-adenosylmethionine (^3H-SAM) was obtained from American Radiolabeled Chemicals with a specific activity of 80 Ci/mmol. Unlabeled SAM and S-adenosylhomocysteine (SAH) were obtained from American Radiolabeled Chemicals and Sigma-Aldrich respectively. […] 384-well Flashplates and 96-well filter binding plates were read on a TopCount microplate reader (PerkinElmer). Compound serial dilutions were performed on a Freedom EVO (Tecan) and spotted into assay plates using a Thermo Scientific Matrix PlateMate (Thermo Scientific). Reagent cocktails were added by Multidrop Combi (Thermo Scientific).
# General Procedure for EHMT2 Enzyme Assay on Histone Peptide Substrate. 10-point curves of test compounds were made on a Freedom EVO (Tecan) using serial 3-fold dilutions in DMSO, beginning at 2.5 mM (final top concentration of compound was 50 μM and the DMSO was 2%). A 1 μL aliquot of the inhibitor dilution series was spotted in a polypropylene 384-well V-bottom plate (Greiner) using a Thermo Scientific Matrix PlateMate (Thermo Scientific). […] Reactions were incubated for 60 minutes at room temperature and quenched with 10 μL per well of 400 μM unlabeled SAM, then transferred to a 384-well streptavidin Flashplate (PerkinElmer) and washed in a Biotek ELx-405 well washer with 0.1% Tween after 60 minutes. 384-well Flashplates were read on a TopCount microplate reader (PerkinElmer).
# EHMT1 = molecular target: T2, EHMT1 (Homo sapiens, UniProt Q9H9B1); assay: EHMT1 PEP; type: biochemical
# T2 sequence (Q9H9B1 1-1298): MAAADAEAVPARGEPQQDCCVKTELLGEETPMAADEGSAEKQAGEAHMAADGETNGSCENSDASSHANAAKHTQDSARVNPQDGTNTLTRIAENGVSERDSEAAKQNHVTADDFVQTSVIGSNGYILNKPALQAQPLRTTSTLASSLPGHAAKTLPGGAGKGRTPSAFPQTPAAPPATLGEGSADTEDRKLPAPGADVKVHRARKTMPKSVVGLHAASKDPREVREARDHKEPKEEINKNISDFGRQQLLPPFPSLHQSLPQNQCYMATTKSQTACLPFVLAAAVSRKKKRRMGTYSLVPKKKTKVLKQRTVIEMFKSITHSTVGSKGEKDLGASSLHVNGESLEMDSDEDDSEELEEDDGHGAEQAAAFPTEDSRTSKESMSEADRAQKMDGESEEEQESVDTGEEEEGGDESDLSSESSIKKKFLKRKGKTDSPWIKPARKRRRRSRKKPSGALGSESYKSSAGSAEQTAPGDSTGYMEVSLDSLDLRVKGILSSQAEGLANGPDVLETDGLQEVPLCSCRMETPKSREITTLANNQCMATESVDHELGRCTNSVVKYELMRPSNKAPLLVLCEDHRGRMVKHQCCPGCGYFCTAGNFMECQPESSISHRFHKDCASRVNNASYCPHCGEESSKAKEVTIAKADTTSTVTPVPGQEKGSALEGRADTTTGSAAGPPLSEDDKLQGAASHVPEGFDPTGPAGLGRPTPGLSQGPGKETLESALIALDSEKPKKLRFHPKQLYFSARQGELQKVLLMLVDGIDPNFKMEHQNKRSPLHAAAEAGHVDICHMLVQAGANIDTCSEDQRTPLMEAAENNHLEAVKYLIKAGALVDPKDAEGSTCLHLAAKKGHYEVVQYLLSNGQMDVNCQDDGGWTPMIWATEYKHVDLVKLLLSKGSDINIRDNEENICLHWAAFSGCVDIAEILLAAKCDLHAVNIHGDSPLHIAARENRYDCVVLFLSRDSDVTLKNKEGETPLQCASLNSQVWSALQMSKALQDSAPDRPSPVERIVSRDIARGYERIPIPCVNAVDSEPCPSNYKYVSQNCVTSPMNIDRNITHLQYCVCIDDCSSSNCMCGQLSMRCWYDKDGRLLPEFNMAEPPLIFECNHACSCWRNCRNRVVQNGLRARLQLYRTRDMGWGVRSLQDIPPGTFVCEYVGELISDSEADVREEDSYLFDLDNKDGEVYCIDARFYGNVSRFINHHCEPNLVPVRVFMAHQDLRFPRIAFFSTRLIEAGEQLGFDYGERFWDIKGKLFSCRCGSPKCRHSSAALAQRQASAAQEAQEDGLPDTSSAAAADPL
SMILES,IC50 (human EHMT2 913-1193) [µM],IC50 (EHMT1) [µM]
"COc1cc2c(cc1C#CCN1CCCC1)N=C(N)C21CCC1 [Compound 24, 5′-methoxy-6′-(3-(pyrrolidin-1-yl)prop-1-yn-1-yl)spiro[cyclobutane-1,3′-indol]-2′-amine]",< 0.1,< 0.1
CNc1nc2cc(OC[C@H](O)CN3CCC3)c(OC)cc2n1C [Compound 25],0.1 to 1,< 0.1
CNc1nc2cc(OC[C@H](O)CN3CCCC3)c(OC)cc2n1C [Compound 26],0.1 to 1,< 0.1
CCNc1nc2cc(OCCCN3CCCC3)c(OC)cc2n1C [Compound 27],0.1 to 1,< 0.1
COc1cc2c(cc1OCCCN1CCCC1)nc(NC(C)C)n2C [Compound 28],0.1 to 1,0.1 to 1
COc1cc2c(cc1OCCCN1CCCC1)nc(NC1CCOCC1)n2C [Compound 29],1 to 10,1 to 10
COc1cc2c(cc1OCCCN1CCCC1)nc(NC1CCCC1)n2C [Compound 30],0.1 to 1,0.1 to 1
CCNc1nc2cc(OC[C@H](O)CN3CCCC3)c(OC)cc2n1C [Compound 31],0.1 to 1,< 0.1
COc1cc2c(cc1OC[C@H](O)CN1CCCC1)nc(NC(C)C)n2C [Compound 32],0.1 to 1,0.1 to 1
COc1cc2c(cc1OC[C@H](O)CN1CCCC1)nc(NC1CCCC1)n2C [Compound 33],0.1 to 1,0.1 to 1
COc1cc2c(cc1OC[C@H](O)CN1CCCC1)nc(NCC1CC1)n2C [Compound 34],0.1 to 1,< 0.1
COc1cc2c(cc1OC[C@H](O)CN1CCCC1)nc(NC1CCOCC1)n2C [Compound 35],1 to 10,1 to 10
CNc1nc2cc(OCCCN3CCCC3)c(OC)cc2n1C(C)C [Compound 36],< 0.1,< 0.1
CNc1nc2cc(CNCCN3CCCC3)c(OC)cc2n1C [Compound 37],< 0.1,< 0.1
CNc1nc2cc(OC[C@H](O)CN3CCCC3)c(OC)cc2n1C1CCCC1 [Compound 38],< 0.1,< 0.1
CCNc1nc2cc(OCCCN3CCCC3)c(OC)cc2n1CC [Compound 39],< 0.1,< 0.1
CNc1nc2cc(CNCCN3CCCC3)c(OC)cc2n1C(C)C [Compound 40],0.1 to 1,< 0.1
CCn1c(NC)nc2cc(CNCCN3CCCC3)c(OC)cc21 [Compound 41],< 0.1,< 0.1
